Experiment [1] has as its target T1, trypanothione reductase (Trypanosoma cruzi, UniProt P28593). Briefly: crystal structure of the covalent adduct at […] Å. Type of experiment: biochemical. The following applies: read-out: Ki.
Experiment [2] has as its target T1, trypanothione reductase. Briefly: protection of oxidised enzyme from QM inactivation. Type of experiment: biochemical.

T1 sequence (P28593 whole entry): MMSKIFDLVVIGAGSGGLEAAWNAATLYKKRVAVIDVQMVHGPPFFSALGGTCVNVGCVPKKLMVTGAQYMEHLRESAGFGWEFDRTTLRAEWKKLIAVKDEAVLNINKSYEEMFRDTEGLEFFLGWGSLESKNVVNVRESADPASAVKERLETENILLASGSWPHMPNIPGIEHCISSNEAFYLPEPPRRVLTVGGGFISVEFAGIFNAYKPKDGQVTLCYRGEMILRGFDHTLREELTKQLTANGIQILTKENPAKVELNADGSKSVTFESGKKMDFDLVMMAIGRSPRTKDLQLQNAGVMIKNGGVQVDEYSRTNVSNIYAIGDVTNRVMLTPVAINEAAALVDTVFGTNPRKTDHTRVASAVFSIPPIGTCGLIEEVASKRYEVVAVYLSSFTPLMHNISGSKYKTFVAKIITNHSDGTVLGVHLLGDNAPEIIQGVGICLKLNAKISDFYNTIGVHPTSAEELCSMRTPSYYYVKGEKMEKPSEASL

`COc1ccc2nc3cc(Cl)ccc3c(NC(C)CCCN(CCCl)CCCl)c2c1` (racemic) [QM, quinacrine mustard]: in experiment [1], the KI (inactivation) is 41 ± 8 µM.
The compound `CCN(CC)CCCC(C)Nc1c2ccc(Cl)cc2nc2ccc(OC)cc12` (centres unmarked) [quinacrine] yielded a Ki in experiment [2] of 208 ± 45 µM.

These data come from paper PMC3491871 (The Journal of biological chemistry, 2004).
